From patent US20250230193A1, “CYCLIC COMPOUND HAVING SELECTIVE KRAS INHIBITORY EFFECT ON HRAS AND NRAS” (CHUGAI SEIYAKU KABUSHIKI KAISHA, priority 2022, published 2025)

Assays:
[1] = target: GDP-bound HRAS wild-type protein (Homo sapiens, UniProt P01112); assay: Binding to HRAS by surface plasmon resonance (SPR), Single Cycle Kinetics; conditions: KD ratio, GDP-bound HRAS wild-type vs GDP-bound KRAS wild-type, SPR
[2] = target: GDP-bound NRAS wild-type protein (Homo sapiens, UniProt P01111); assay: Binding to NRAS by surface plasmon resonance (SPR), Single Cycle Kinetics; conditions: KD ratio, GDP-bound NRAS wild-type vs GDP-bound KRAS wild-type, SPR
GDP-bound NRAS wild-type protein, sequence (P01111 whole entry): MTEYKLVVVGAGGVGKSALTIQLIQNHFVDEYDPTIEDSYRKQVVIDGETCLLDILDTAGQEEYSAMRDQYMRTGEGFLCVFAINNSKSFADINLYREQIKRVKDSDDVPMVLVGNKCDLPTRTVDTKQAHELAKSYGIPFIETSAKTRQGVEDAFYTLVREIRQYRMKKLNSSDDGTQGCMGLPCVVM

GDP-bound HRAS wild-type protein, sequence (P01112 whole entry): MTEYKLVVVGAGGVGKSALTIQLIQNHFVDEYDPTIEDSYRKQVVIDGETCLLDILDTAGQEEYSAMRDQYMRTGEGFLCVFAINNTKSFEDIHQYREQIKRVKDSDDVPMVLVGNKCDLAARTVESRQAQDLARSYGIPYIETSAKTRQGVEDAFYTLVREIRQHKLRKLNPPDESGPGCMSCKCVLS

Compound | HRAS/KRAS (ratio of KD value with respect to HRAS to KD value with respect to KRAS) [1] | NRAS/KRAS (ratio of KD value with respect to NRAS to KD value with respect to KRAS) [2]
CCO[C@@H]1C[C@H]2C(=O)NC3(CCC3)C(=O)N(C)[C@@H](C3CCCC3)C(=O)N(CC)[C@H](C(=O)N3CCOCC3)CC(=O)N(C)[C@@H](CC)C(=O)N[C@@H]([C@@H](C)CC)C(=O)N(C)CC(=O)N(C)[C@H]3CCCCCN(C3=O)[C@@H](Cc3ccc(C(F)(F)F)cc3)C(=O)N(C)CC(=O)N[C@@H](CCc3cc(F)c(C(F)(F)F)c(F)c3)C(=O)N2C1 [PP0944] | A (a compound having 10 or more and less than 20 is denoted as A) | A (a compound having 10 or more and less than 20 is denoted as A)
CCO[C@@H]1C[C@H]2C(=O)NC3(CCC3)C(=O)N(C)[C@@H](C3CCCC3)C(=O)N(CC)[C@H](C(=O)N3CCOCC3)CC(=O)N(C)[C@@H](CO)C(=O)N[C@@H]([C@@H](C)CC)C(=O)N(C)CC(=O)N(C)[C@H]3CCCCCN(C3=O)[C@@H](Cc3ccc(C(F)(F)F)cc3)C(=O)N(C)CC(=O)N[C@@H](CCc3cc(F)c(C(F)(F)F)c(F)c3)C(=O)N2C1 [PP0945] | A (a compound having 10 or more and less than 20 is denoted as A) | B (a compound having 3 or more and less than 10 is denoted as B)
CCO[C@@H]1C[C@H]2C(=O)NC3(CCC3)C(=O)N(C)[C@@H](C3CCCC3)C(=O)N(CC)[C@H](C(=O)N3CCOCC3)CC(=O)N(C)[C@@H](COC)C(=O)N[C@@H]([C@@H](C)CC)C(=O)N(C)CC(=O)N(C)[C@H]3CCCCCN(C3=O)[C@@H](Cc3ccc(C(F)(F)F)cc3)C(=O)N(C)CC(=O)N[C@@H](CCc3cc(F)c(C(F)(F)F)c(F)c3)C(=O)N2C1 [PP0946] | B (a compound having 3 or more and less than 10 is denoted as B) | A (a compound having 10 or more and less than 20 is denoted as A)
CCO[C@@H]1C[C@H]2C(=O)NC3(CCC3)C(=O)N(C)[C@@H](C3CCCC3)C(=O)N(CC)[C@H](C(=O)N3CCOCC3)CC(=O)N(C)[C@@H](CCOC)C(=O)N[C@@H]([C@@H](C)CC)C(=O)N(C)CC(=O)N(C)[C@H]3CCCCCN(C3=O)[C@@H](Cc3ccc(C(F)(F)F)cc3)C(=O)N(C)CC(=O)N[C@@H](CCc3cc(F)c(C(F)(F)F)c(F)c3)C(=O)N2C1 [PP0947] | A (a compound having 10 or more and less than 20 is denoted as A) | A (a compound having 10 or more and less than 20 is denoted as A)
CCO[C@@H]1C[C@H]2C(=O)NC3(CCC3)C(=O)N(C)[C@@H](C3CCCC3)C(=O)N(CC)[C@H](C(=O)N3CCOCC3)CC(=O)N(C)[C@@H](CCC(F)F)C(=O)N[C@@H]([C@@H](C)CC)C(=O)N(C)CC(=O)N(C)[C@H]3CCCCCN(C3=O)[C@@H](Cc3ccc(C(F)(F)F)cc3)C(=O)N(C)CC(=O)N[C@@H](CCc3cc(F)c(C(F)(F)F)c(F)c3)C(=O)N2C1 [PP0948] | A (a compound having 10 or more and less than 20 is denoted as A) | A (a compound having 10 or more and less than 20 is denoted as A)
CCO[C@@H]1C[C@H]2C(=O)NC3(CCC3)C(=O)N(C)[C@@H](C3CCCC3)C(=O)N(CC)[C@H](C(=O)N3CCOCC3)CC(=O)N(C)[C@@H](CCC(Cl)Cl)C(=O)N[C@@H]([C@@H](C)CC)C(=O)N(C)CC(=O)N(C)[C@H]3CCCCCN(C3=O)[C@@H](Cc3ccc(C(F)(F)F)cc3)C(=O)N(C)CC(=O)N[C@@H](CCc3cc(F)c(C(F)(F)F)c(F)c3)C(=O)N2C1 [PP0949] | A (a compound having 10 or more and less than 20 is denoted as A) | A (a compound having 10 or more and less than 20 is denoted as A)
CCO[C@@H]1C[C@H]2C(=O)NC3(CCC3)C(=O)N(C)[C@@H](C3CCCC3)C(=O)N(CC)[C@H](C(=O)N3CCOCC3)CC(=O)N(C)[C@@H](Cc3ccccc3)C(=O)N[C@@H]([C@@H](C)CC)C(=O)N(C)CC(=O)N(C)[C@H]3CCCCCN(C3=O)[C@@H](Cc3ccc(C(F)(F)F)cc3)C(=O)N(C)CC(=O)N[C@@H](CCc3cc(F)c(C(F)(F)F)c(F)c3)C(=O)N2C1 [PP0950] | B (a compound having 3 or more and less than 10 is denoted as B) | A (a compound having 10 or more and less than 20 is denoted as A)
CCO[C@@H]1C[C@H]2C(=O)NC3(CCC3)C(=O)N(C)[C@@H](C3CCCC3)C(=O)N(CC)[C@H](C(=O)N3CCOCC3)CC(=O)N(C)[C@@H](CCc3ccccc3)C(=O)N[C@@H]([C@@H](C)CC)C(=O)N(C)CC(=O)N(C)[C@H]3CCCCCN(C3=O)[C@@H](Cc3ccc(C(F)(F)F)cc3)C(=O)N(C)CC(=O)N[C@@H](CCc3cc(F)c(C(F)(F)F)c(F)c3)C(=O)N2C1 [PP0953] | A (a compound having 10 or more and less than 20 is denoted as A) | A (a compound having 10 or more and less than 20 is denoted as A)
CC[C@H](C)[C@@H]1NC(=O)[C@H](CC(C)C)N(C)C(=O)C[C@@H](C(=O)N2CCOCC2)N(CC)C(=O)[C@H](C2CCCC2)N(C)C(=O)C2(CCC2)NC(=O)[C@@H]2CC(F)(F)CN2C(=O)[C@H](CCc2cc(F)c(C(F)(F)F)c(F)c2)NC(=O)CN(C)C(=O)[C@H](Cc2ccc(C(F)(F)F)cc2)N2CCCCC[C@@H](C2=O)N(C)C(=O)CN(C)C1=O [PP0954] | A (a compound having 10 or more and less than 20 is denoted as A) | A (a compound having 10 or more and less than 20 is denoted as A)
CC[C@H](C)[C@@H]1NC(=O)[C@H](CC(C)C)N(C)C(=O)C[C@@H](C(=O)N2CCOCC2)N(CC)C(=O)[C@H](C2CCCC2)N(C)C(=O)C2(CCC2)NC(=O)[C@@H]2[C@H](O)CCN2C(=O)[C@H](CCc2cc(F)c(C(F)(F)F)c(F)c2)NC(=O)CN(C)C(=O)[C@H](Cc2ccc(C(F)(F)F)cc2)N2CCCCC[C@@H](C2=O)N(C)C(=O)CN(C)C1=O [PP0955] | A (a compound having 10 or more and less than 20 is denoted as A) | A (a compound having 10 or more and less than 20 is denoted as A)
CCO[C@@H]1C[C@H]2C(=O)NC3(CC=CC3)C(=O)N(C)[C@@H](C3CCCC3)C(=O)N(CC)[C@H](C(=O)N3CCOCC3)CC(=O)N(C)[C@@H](CC(C)C)C(=O)N[C@@H]([C@@H](C)CC)C(=O)N(C)CC(=O)N(C)[C@H]3CCCCCN(C3=O)[C@@H](Cc3ccc(C(F)(F)F)cc3)C(=O)N(C)CC(=O)N[C@@H](CCc3cc(F)c(C(F)(F)F)c(F)c3)C(=O)N2C1 [PP0956] | A (a compound having 10 or more and less than 20 is denoted as A) | A (a compound having 10 or more and less than 20 is denoted as A)
CCO[C@@H]1C[C@H]2C(=O)NC(C)(C)C(=O)N(C)[C@@H](C3CCCC3)C(=O)N(CC)[C@H](C(=O)N3CCOCC3)CC(=O)N(C)[C@@H](CC(C)C)C(=O)N[C@@H]([C@@H](C)CC)C(=O)N(C)CC(=O)N(C)[C@H]3CCCCCN(C3=O)[C@@H](Cc3ccc(C(F)(F)F)cc3)C(=O)N(C)CC(=O)N[C@@H](CCc3cc(F)c(C(F)(F)F)c(F)c3)C(=O)N2C1 [PP0958] | B (a compound having 3 or more and less than 10 is denoted as B) | B (a compound having 3 or more and less than 10 is denoted as B)
